Measurements from patent US20080227638A1, “Use of abscisic acid to enhance growth control” (priority 2007, published 2008).

Assays:
Format in all cases: in vivo
Kentucky bluegrass [1] = assay: Greenhouse Kentucky bluegrass height and quality, ABA and paclobutrazol (Example 2)
Method: (§1) Greenhouse studies were conducted at the Research Farm of Valent BioSciences Corporation (Long Grove, Ill.). Grasses were grown in pots (18 cm in diameter and 18 cm in height) filled with Promix BX (available from Premier Horticulture Inc. Quakertown, Pa.). Grass was irrigated daily by an overhead irrigation system. The irrigation system was set up with multiple Tornado Mist Spray Heads (10 GPH at 40 PSI-Wetted diameter, NDS/Raindrip, Woodland Hills, Calif.). Spray heads were 1-meter apart from each other and 75 cm above grass canopy. Grass was cut with a scissor at 2.5 cm height and fertilizer (1 g/L all purpose fertilizer 20-20-20, available from The Scotts Company, Marysville, Ohio) was applied once per week.
(§2) Chemical solutions were prepared with distilled water. Tween 20 (0.05% v/v) was used as an, adjuvant. Both trinexapac-ethyl (commercial product Primo Maxx, 11.3% active ingredient) and paclobutrazol (commercial product Trimmit 2SC, 22.3% active ingredient) were purchased from Syngenta Crop Protection Inc. (Greensboro, N.C.). Uniconazole-P (commercial product Sumagic, 0.55% active ingredient) was obtained from Valent U.S.A. Corporation (Walnut Creek, Calif.).
(§3) When treated with paclobutrazol or uniconazole-P, turfgrass received irrigation within 24 hours after application to flush chemicals to the root zone. After treatment, turfgrasses were arranged in a randomized complete block experimental design. Turfgrass quality, turfgrass height or clip fresh weight was measured on assigned dates. Turfgrass quality was visually rated on a 0-9 scale based on the color, uniformity and density of the grass with 0 as the worst and 9 as the best. Turfgrass height was measured as the distance between canopy surface and soil. Clips were collected from each plot; all plots were cut to a uniform height.
(§4) All experiments were randomized complete block experimental design. Data were analyzed by analysis of variance. Duncan's new multiple range tests at α=0.05 were used for mean separations.
Kentucky bluegrass sod (unknown variety) was purchased from Deak sod farms, Inc. (Union Grove, Wis.). Grass was grown in the greenhouse in pots (n=6 pots per treatment) for establishment before treatment. […] Turfgrass quality was evaluated at 7 days after treatment, and turfgrass height was measured at 7 and 28 days after treatment. Tween 20 (0.05% w/v) was included as an adjuvant. The turfgrass canopy was cut every 7 days during the experimental period.

Kentucky bluegrass [2] = assay: Greenhouse Kentucky bluegrass height, ABA and uniconazole-P (Example 3); settings: 10 ppm uniconazole-P
Method: as §1, §2, §3, §4
Kentucky bluegrass sod (unknown variety) was purchased from Deak sod farms, Inc. (Union Grove, Wis.). Grass was grown in the greenhouse in pots (n=6 pots per treatment) for establishment before treatment. […] Tween 20 (0.05% w/v) was included as an adjuvant. The turfgrass was cut every 7 days.

creeping bentgrass = assay: Golf course green creeping bentgrass height, clip weight and quality, ABA and uniconazole-P (Example 5); settings: 0.5 ppm uniconazole-P
Method: Field studies were conducted at the nursery green or the practice green at Countryside golf course (Mundelein, Ill.). Both greens were sand based and growing Penncross creeping bentgrass. Grass was managed with typical Illinois golf course management practices.
as §2, §3, §4
Tween 20 (0.05% w/v) was included as an adjuvant.

Bermudagrass = Bermudagrass clip weight, ABA and uniconazole-P (Example 7); settings: 50 ppm uniconazole-P; 7 days after treatment
Method: as §2, §3, §4

Row | SMILES | Turfgrass height (Kentucky bluegrass [1]; 50 ppm paclobutrazol, 7 days after treatment) [cm] | Turfgrass height (Kentucky bluegrass [1]; 50 ppm paclobutrazol, 28 days after treatment) [cm] | Turfgrass height (Kentucky bluegrass [1]; 500 ppm paclobutrazol, 7 days after treatment) [cm] | Turfgrass height (Kentucky bluegrass [1]; 500 ppm paclobutrazol, 28 days after treatment) [cm] | Turfgrass height (Kentucky bluegrass [2]; 7 days after treatment) [cm] | Turfgrass height (Kentucky bluegrass [2]; 42 days after treatment) [cm] | Clip weight (creeping bentgrass; 7 days after treatment) [g] | Turfgrass height (creeping bentgrass; 7 days after treatment) [cm] | Clip weight (creeping bentgrass; 49 days after treatment) [g] | Turfgrass height (creeping bentgrass; 49 days after treatment) [cm] | Effect on turfgrass quality (creeping bentgrass; throughout the study (not shown)) | Clip weight (Bermudagrass) [g] | less clip weight compared to control (Bermudagrass) [%]
1 | CC(C)(C)[C@@H](O)[C@@H](Cc1ccc(Cl)cc1)n1cncn1 [paclobutrazol] | 12.3 | 8.6 | 12.1 | 6.2 | – | – | – | – | – | – | – | – | –
2 | CC(C)(C)[C@H](O)/C(=C\c1ccc(Cl)cc1)n1cncn1 [uniconazole-P] | – | – | – | – | 12.3 | 9.8 | 2.4 | 6.0 | 3.3 | 4.8 | No effect on turfgrass quality | 1.4 | 14
